Laboratory results reported in article PMC10743451, “Addressing the Binding Mechanism of the Meprin and TRAF-C Homology Domain of the Speckle-Type POZ Protein Using Protein Engineering” (International Journal of Molecular Sciences, 2023).

System: SPOP MATH domain
Experiment: Linear free energy relationship (LFER) analysis of binding to SPOP MATH wildtype and mutant variants
Conditions: LFER over MATH wildtype and mutant variants
Source text: A powerful method used to address the mechanism of binding between ligands is to study the effect of structural perturbation on the transition and ground states. This approach, classically denoted as Leffler or Linear Free Energy Relationship (LFER) analysis, aims at analyzing the correlation of the change in activation free energy to the change in equilibrium free energy; LFER analysis has been used in organic chemistry, protein folding, enzymology, and protein–protein interaction studies to decipher the position of the transition state of a reaction along the reaction coordinates. The analysis of the dependences of the microscopic association and dissociation rate constants over the equilibrium constant of each MATH variant to Puc and MacroH2A are reported in Figure 5.
Figure 5 Linear free energy relationship for the binding of MATH wildtype and mutant variants to the peptides Puc (panels (A,B)) and MacroH2A (panels (C,D)). Panels (A,C) represent the dependences of the microscopic association rate constant kon on the equilibrium dissociation constant. Panels (B,D) represent the dependences of the microscopic dissociation rate constant koff on the equilibrium dissociation constant. The blue and red dots represent the dependences of kon or koff on the equilibrium dissociation constant (KD), respectively.

| Sequence | slope of log koff versus log KD | slope of log kon vs. log KD |
| --- | --- | --- |
| DEVTSTTSSS [Puc] | 0.36 ± 0.09 | −0.64 ± 0.09 |
| KAASADSTTEGTPAD [MacroH2A] | 0.02 ± 0.11 | −0.98 ± 0.11 |
